Laboratory results reported in the NIST ThermoML archive (doi:10.1021/je060271a).

Conditions: 323.14 K, Liquid, Vibrating tube method

CCCC(=O)OCC(COC(=O)CCC)(COC(=O)CCC)COC(=O)CCC [pentaerythritol tetrabutyrate]
Conditions	mass density [kg/m3]
17664 kPa	1037.3
17706 kPa	1037.2
17742 kPa	1037.4
17779 kPa	1037.3
17823 kPa	1037.3
17860 kPa	1037.3
17896 kPa	1037.3
17933 kPa	1037.5
17977 kPa	1037.4
18014 kPa	1037.5
18060 kPa	1037.4
18099 kPa	1037.5
18137 kPa	1037.5
18184 kPa	1037.6
18224 kPa	1037.5
18264 kPa	1037.7
18304 kPa	1037.6
18346 kPa	1037.8
18376 kPa	1037.8
18470 kPa	1037.7
18504 kPa	1037.6
18534 kPa	1037.7
18564 kPa	1037.8
18600 kPa	1037.9
18629 kPa	1037.8
18660 kPa	1037.9
18695 kPa	1037.8
18793 kPa	1037.9
18818 kPa	1038
18855 kPa	1038
18891 kPa	1038
18922 kPa	1037.9
18954 kPa	1038
18986 kPa	1038.2
19023 kPa	1038
19055 kPa	1038
19093 kPa	1038.2
19125 kPa	1038.1
19157 kPa	1038.1
19219 kPa	1038.2
19363 kPa	1038.3
19716 kPa	1038.6
19756 kPa	1038.7
19790 kPa	1038.6
19824 kPa	1038.7
19866 kPa	1038.6
19901 kPa	1038.7
19935 kPa	1038.8
20012 kPa	1038.8
20274 kPa	1038.9
20318 kPa	1038.9
20356 kPa	1038.9
20392 kPa	1038.9
20429 kPa	1039.1
20472 kPa	1039.1
20510 kPa	1039
20629 kPa	1039.2
20667 kPa	1039.1
20706 kPa	1039.2
20751 kPa	1039.2
20789 kPa	1039.2
20828 kPa	1039.3
20869 kPa	1039.3
20908 kPa	1039.4
20954 kPa	1039.3
20992 kPa	1039.4
21039 kPa	1039.3
21079 kPa	1039.4
21117 kPa	1039.6
21156 kPa	1039.4
21204 kPa	1039.5
21243 kPa	1039.5
21283 kPa	1039.5
21333 kPa	1039.5
21374 kPa	1039.6
21416 kPa	1039.6
21465 kPa	1039.7
21508 kPa	1039.7
21593 kPa	1039.7
22639 kPa	1040.4
22677 kPa	1040.4
22723 kPa	1040.4
22761 kPa	1040.5
22807 kPa	1040.5
22845 kPa	1040.5
22884 kPa	1040.5
22932 kPa	1040.5
22972 kPa	1040.6
23010 kPa	1040.7
23051 kPa	1040.6
23098 kPa	1040.7
23137 kPa	1040.7
23185 kPa	1040.7
23224 kPa	1040.8
23265 kPa	1040.8
23314 kPa	1040.8
23354 kPa	1040.9
23396 kPa	1040.8
23445 kPa	1040.8
23487 kPa	1041
23528 kPa	1040.9
23578 kPa	1041
23620 kPa	1041
23662 kPa	1041.1
23705 kPa	1041
23756 kPa	1041.1
23800 kPa	1041.1
24059 kPa	1041.3
24170 kPa	1041.4
24213 kPa	1041.4
24248 kPa	1041.5
24441 kPa	1041.6
24478 kPa	1041.6
24516 kPa	1041.6
24554 kPa	1041.6
24598 kPa	1041.7
24634 kPa	1041.6
24671 kPa	1041.6
24708 kPa	1041.8
24752 kPa	1041.8
24955 kPa	1041.8
24993 kPa	1041.9
25031 kPa	1041.9
25070 kPa	1041.9
25108 kPa	1041.9
25155 kPa	1042.1
25193 kPa	1042
25232 kPa	1042
25278 kPa	1042
25825 kPa	1042.4
25865 kPa	1042.5
25913 kPa	1042.5
25954 kPa	1042.5
25996 kPa	1042.5
26045 kPa	1042.6
26086 kPa	1042.6
26129 kPa	1042.6
26170 kPa	1042.7
26220 kPa	1042.7
26262 kPa	1042.7
26305 kPa	1042.7
26355 kPa	1042.7
26397 kPa	1042.8
26448 kPa	1042.8
26490 kPa	1042.8
26533 kPa	1042.9
